The values below are quoted from earlier work in patent US20050085455A1, “Photodynamic therapy for local adipocyte reduction” (Light Sciences Corporation, priority 2003, published 2005).

The conditions of the data set: systemically administered sensitizer in clinical use; for duration of skin sensitization: result in words.

With `CCOC(=O)C1=Cc2c3nc(cc4nc(cc5[n-]c(cc6[n-]c2c(C)c6CC)c(C)c5CC)C(C)=C4CC)[C@@H](C)[C@]13CC.[Cl-].[Cl-].[Sn]` (racemic) [Purlytin], the “duration of skin sensitization” value is recorded as “several weeks”. With `Oc1cccc(-c2c3nc(c(-c4cccc(O)c4)c4ccc([nH]4)c(-c4cccc(O)c4)c4nc(c(-c5cccc(O)c5)c5ccc2[nH]5)CC4)C=C3)c1` [Foscan], the “duration of skin sensitization” value is reported as “several weeks”. sodium porfimer [Photophrin]: where the note is “skin photosensitivity”, the duration of photosensitivity result is reported as “up to 6 weeks”.
